These results are taken from patent publication US12605358B2, “Composition for preventing or treating nervous system diseases comprising compound that inhibits mTOR signaling pathway as active ingredient” (ALIAD BIOPHARMA, priority 2021, dated 2026).

In experiment [1] the test system is primary cultured cerebral neurons. Nature of the experiment: Neuron protective efficacy against Aβ toxicity (DAPI cell count). In kind it is cell-based, rat. Conditions: Aβ 0.5 or 1 μM, HN-1703 0.1 or 0.5 μM, 12 or 24 hours; Aβ alone reduced viability by 50% or more; FIGS. 5A, 5B. As for the experimental part:
Primary cultured neurons from the cerebral cortex of rat embryos (E16) were treated with […] or 1 μM Aβ and 0.1 μM or 0.5 μM HN-1703 for 12 or 24 hours. Cell viability was evaluated by measuring the number of cells stained with DAPI.
Aβ has strong toxicity to neurons, and the death of neurons caused by Aβ accumulated in the brain is a major cause of Alzheimer's disease. To evaluate whether HN-1703 for inhibiting the mTOR signaling pathway and promoting autophagy may directly protect neurons from Aβ toxicity, an inhibitory effect of HN-1703 on Aβ-induced apoptosis of primary cultured cerebral neurons was evaluated, and the number of live cells stained with DAPI was quantified and shown in FIGS. 5A and 5B.

The next experiment has as its system 5xFAD transgenic mice. As to the kind of experiment: Neurogenesis (Sox2/DCX/NeuN staining). Conditions: 10 to 20 mg/kg; compared to the WT normal group; FIG. 17. The experiment is classed as in vivo. As for the experimental part: 5xFAD animals were administered with HN-1703 at three doses for 14 days to male heterozygotes aged 6 months (all born within 3 days). The behaviors of mice were measured in a dark cycle in which the mice were active while alternating light and dark in a 12-hour cycle in a breeding room chamber, and the mice were freely accessible to food and water and bred in compliance with experimental animal ethical guidelines of Kyung Hee University. In each group, the HN-1703 was intraperitoneally injected at the same time once a day in a volume of 100 μl to 12 mice in a normal group (wild type littermate), 9 5xFAD mice in a vehicle (DMSO administration), 8 5xFAD mice in a 5 mg/kg administered group, 9 5xFAD mice in a 10 mg/kg administered group, and 9 5xFAD mice in a 20 mg/kg administered group. […] Behavioral measures were measured in Y-maze, Morris Water Maze, and Passive Avoidance test for 18 days in sequence. […]
FIG. 17 illustrates confocal scanning micrographs of a subgranular zone region of the hippocampal dentate gyrus after triple staining with an NeuN antibody as a neuron marker, an Sox2 antibody as a type1 neural progenitor cell marker, and a DCX antibody as a differentiating and migrating type3 neural precursor cell marker, and quantifying the number of Sox2+/NeuN+ cells and the number of DCX+/NeuN+ cells.

With `COc1cc(OC)c2c(=O)c3cc4c(cc3oc2c1)OCO4` [HN-1703, 7,9-dimethoxy-10H-[1,3]dioxolo[4,5-b]xanthen-10-one], the “cell viability (number of live cells stained with DAPI) under Aβ toxicity” value in experiment [1] is “viability was significantly increased”. In the experiment with 5xFAD transgenic mice, the “DCX+ neural progenitor cells” value is “twice or more” and the “Sox2+ neural progenitor cells” value is “more Sox2+ neural progenitor cells were observed”.
